According to patent US20200205318A1, “HEAT TRANSFER FLUIDS, METHODS AND SYSTEMS” (priority 2018, published 2020):

What was measured:
[1] = Acute inhalation toxicity (OECD Guideline No. 403); format: in vivo; conditions: statement in words
Description: LC50 is a measure of the acute toxicity of a compound. The acute inhalation toxicity of a compound can be assessed using the method described in the OECD Guideline for Testing of Chemicals No. 403 “Acute Inhalation Toxicity” (2009), Method B.2. (Inhalation) of Commission Regulation (EC) No. 440/2008.

[2] = Flammability / flash point (ASTM D3828, NFPA 30); format: physicochemical
Procedure: The flash pint of a thermal management fluid refers the lowest temperature at which vapors of the liquid will keep burning after the ignition source is removed as determined in accordance with ASTM D3828.
“Non-flammable” in the context of a thermal management composition or fluid means compounds or compositions which are determined to be non-flammable. The flash point of a thermal management composition or fluid refers the lowest temperature at which vapors of the composition will keep burning after the ignition source is removed as determined in accordance with ASTM D3828.

[3] = Dielectric constant (ASTM D2477-07); format: physicochemical; conditions: at 22° C.
Procedure: (§1) Applicants have unexpectedly discovered that TFMCB not only meets the challenging performance requirements for high temperature heat transfer applications and for electronic cooling but also satisfies exacting environmental and safety requirements. […] In particular, applicants have determined that TFMCB has a measured dielectric constant of 20 at 22° C. as determined by ASTM D2477-07 and has a measured electrical conductivity of less than 10 nS/cm at 22° C. as determined by ASTM D 2624.

[4] = Electrical conductivity (ASTM D 2624); format: physicochemical; conditions: at 22° C.
Procedure: as §1

With `FC(F)(F)C1(F)CCC1(F)F` (centres unmarked) [TFMCB, 1-trifluoromethyl-1,2,2-trifluorocyclobutane] the toxicity [1] was “low levels of toxicity”, the flammability [2] was “non-flammable” and the flash point ([2]; ASTM D3828) was “no flash point below 100° F”. The dielectric constant [3] was 20 and the electrical conductivity [4] was “less than 10 nS/cm”.
